Assays:
Streptococcus pneumoniae [1] = assay: Antimicrobial activity against telithromycin-resistant Streptococcus pneumoniae 115 isolate with erm(B) resistance gene from patient ear by disk diffusion test; format: functional
Streptococcus pneumoniae [2] = assay: Antimicrobial activity against telithromycin-resistant Streptococcus pneumoniae 897 isolate with erm(B) resistance gene from patient bronchoalveolar lavage by disk diffusion test; format: functional, Lung
Streptococcus pneumoniae [3] = assay: Antimicrobial activity against telithromycin-resistant Streptococcus pneumoniae 237 isolate with erm(B) resistance gene from patient ear by disk diffusion test; format: functional
Streptococcus pneumoniae [4] = assay: Antimicrobial activity against telithromycin-resistant Streptococcus pneumoniae 415 isolate with erm(B) resistance gene from patient blood by disk diffusion test; format: functional
Streptococcus pneumoniae [5] = assay: Antimicrobial activity against telithromycin-resistant Streptococcus pneumoniae 426 isolate with erm(B) resistance gene from patient sinuitis by disk diffusion test; format: functional
Streptococcus pneumoniae [6] = assay: Antimicrobial activity against telithromycin-resistant Streptococcus pneumoniae 427 isolate with erm(B) resistance gene from patient sinuitis by disk diffusion test; format: functional
Streptococcus pneumoniae [7] = assay: Antimicrobial activity against telithromycin-resistant Streptococcus pneumoniae 443 isolate with erm(B) resistance gene from patient ear by disk diffusion test; format: functional
Streptococcus pneumoniae [8] = assay: Antimicrobial activity against telithromycin-resistant Streptococcus pneumoniae 460 isolate with erm(B) resistance gene from patient ear by disk diffusion test; format: functional
Streptococcus pneumoniae [9] = assay: Antimicrobial activity against telithromycin-resistant Streptococcus pneumoniae 547 isolate with erm(B) resistance gene from patient sinuitis by disk diffusion test; format: functional
Streptococcus pneumoniae [10] = assay: Antimicrobial activity against telithromycin-resistant Streptococcus pneumoniae 552 isolate with erm(B) resistance gene from patient sinuitis by disk diffusion test; format: functional
Streptococcus pneumoniae [11] = assay: Antimicrobial activity against telithromycin-resistant Streptococcus pneumoniae 683 isolate with erm(B) resistance gene from patient sputum by disk diffusion test; format: functional
Streptococcus pneumoniae [12] = assay: Antimicrobial activity against telithromycin-resistant Streptococcus pneumoniae 811 isolate with erm(B) resistance gene from patient blood by disk diffusion test; format: functional
Streptococcus pneumoniae [13] = assay: Antimicrobial activity against telithromycin-resistant Streptococcus pneumoniae 833 isolate with erm(B) resistance gene from patient sinuitis by disk diffusion test; format: functional
Streptococcus pneumoniae [14] = assay: Antimicrobial activity against telithromycin-resistant Streptococcus pneumoniae 859 isolate with erm(B) resistance gene from patient bronchoalveolar lavage by disk diffusion test; format: functional, Lung
Streptococcus pneumoniae [15] = assay: Antimicrobial activity against telithromycin-resistant Streptococcus pneumoniae 918 isolate with erm(B) resistance gene from patient eye by disk diffusion test; format: functional
Streptococcus pneumoniae [16] = assay: Antimicrobial activity against telithromycin-resistant Streptococcus pneumoniae 981 isolate with erm(B) resistance gene from patient blood by disk diffusion test; format: functional
Streptococcus pneumoniae [17] = assay: Antimicrobial activity against telithromycin-resistant Streptococcus pneumoniae 1016 isolate with erm(B) resistance gene from patient blood by disk diffusion test; format: functional
Streptococcus pneumoniae [18] = assay: Antimicrobial activity against telithromycin-resistant Streptococcus pneumoniae 1017 isolate with erm(B) resistance gene from patient ear by disk diffusion test; format: functional
Streptococcus pneumoniae [19] = assay: Antimicrobial activity against telithromycin-resistant Streptococcus pneumoniae 1022 isolate with erm(B) resistance gene from patient ear by disk diffusion test; format: functional
Streptococcus pneumoniae [20] = assay: Antimicrobial activity against telithromycin-resistant Streptococcus pneumoniae 1041 isolate with erm(B) resistance gene from patient blood by disk diffusion test; format: functional
Streptococcus pneumoniae [21] = assay: Antimicrobial activity against telithromycin-resistant Streptococcus pneumoniae 1051 isolate with erm(B) resistance gene from patient ear by disk diffusion test; format: functional
Streptococcus pneumoniae [22] = assay: Antimicrobial activity against telithromycin-resistant Streptococcus pneumoniae 838 isolate with erm(B) and mef(E) resistance gene from patient ear by disk diffusion test; format: functional
Streptococcus pneumoniae [23] = assay: Antimicrobial activity against telithromycin-resistant Streptococcus pneumoniae 759 isolate with erm(B) resistance gene from patient ear by disk diffusion test; format: functional
Streptococcus pneumoniae [24] = assay: Antimicrobial activity against telithromycin-resistant Streptococcus pneumoniae 837 isolate with mutation in erm(B), mef(E), L4 Ser20Asn mutant gene from patient sputum by disk diffusion test; format: functional
Streptococcus pneumoniae [25] = assay: Antimicrobial activity against telithromycin-resistant Streptococcus pneumoniae 326 isolate with erm(B) resistance gene from patient blood by disk diffusion test; format: functional
Streptococcus pneumoniae [26] = assay: Antimicrobial activity against telithromycin-resistant Streptococcus pneumoniae 376 isolate with erm(B) resistance gene from patient ear by disk diffusion test; format: functional

SMILES	Activity (Streptococcus pneumoniae [1]) [µg/mL]	Activity (Streptococcus pneumoniae [2]) [µg/mL]	Activity (Streptococcus pneumoniae [3]) [µg/mL]	Activity (Streptococcus pneumoniae [4]) [µg/mL]	Activity (Streptococcus pneumoniae [5]) [µg/mL]	Activity (Streptococcus pneumoniae [6]) [µg/mL]	Activity (Streptococcus pneumoniae [7]) [µg/mL]	Activity (Streptococcus pneumoniae [8]) [µg/mL]	Activity (Streptococcus pneumoniae [9]) [µg/mL]	Activity (Streptococcus pneumoniae [10]) [µg/mL]	Activity (Streptococcus pneumoniae [11]) [µg/mL]	Activity (Streptococcus pneumoniae [12]) [µg/mL]	Activity (Streptococcus pneumoniae [13]) [µg/mL]	Activity (Streptococcus pneumoniae [14]) [µg/mL]	Activity (Streptococcus pneumoniae [15]) [µg/mL]	Activity (Streptococcus pneumoniae [16]) [µg/mL]	Activity (Streptococcus pneumoniae [17]) [µg/mL]	Activity (Streptococcus pneumoniae [18]) [µg/mL]	Activity (Streptococcus pneumoniae [19]) [µg/mL]	Activity (Streptococcus pneumoniae [20]) [µg/mL]	further results
CC[C@H]1OC(=O)[C@H](C)[C@@H](O[C@H]2C[C@@](C)(OC)[C@@H](O)[C@H](C)O2)[C@H](C)[C@@H](O[C@@H]2O[C@H](C)C[C@H](N(C)C)[C@H]2O)[C@](C)(O)C[C@@H](C)C(=O)[C@H](C)[C@@H](O)[C@]1(C)O [ERYTHROMYCIN]	129	129	129	129	129	129	129	129	129	129	129	129	129	129	129	129	129	129	129	129	Activity (Streptococcus pneumoniae [21]): 129 µg/mL; Activity (Streptococcus pneumoniae [22]): 129 µg/mL; Activity (Streptococcus pneumoniae [23]): 129 µg/mL; Activity (Streptococcus pneumoniae [24]): 129 µg/mL; Activity (Streptococcus pneumoniae [25]): 129 µg/mL; Activity (Streptococcus pneumoniae [26]): 129 µg/mL
CN(C)[C@@H]1C(O)=C(C(N)=O)C(=O)[C@@]2(O)C(O)=C3C(=O)c4c(O)cccc4[C@@](C)(O)[C@H]3C[C@@H]12 [TETRACYCLINE]	64	64	32	32	32	32	32	32	32	32	32	16	32	32	32	32	32	32	32	32	Activity (Streptococcus pneumoniae [21]): 32 µg/mL; Activity (Streptococcus pneumoniae [22]): 32 µg/mL; Activity (Streptococcus pneumoniae [23]): 32 µg/mL; Activity (Streptococcus pneumoniae [24]): 64 µg/mL; Activity (Streptococcus pneumoniae [25]): 32 µg/mL; Activity (Streptococcus pneumoniae [26]): 0.5 µg/mL

Source: ChEMBL document CHEMBL1145481, “Molecular epidemiology of telithromycin-resistant pneumococci in Finland” (2007)
